In brackets after ≈: the same amount, converted by molar mass. Activity calls are given as the source filed them. The calls are words filed in the database; no cut-off is given here. Starred links: 1 amine or outer side, 2 acyl side, 3 side chain; linkers in the order of their positions; H or OH if unused. Non-standard residues stand in square brackets, D forms with d. Residues, ends and D or L forms follow the SMILES beside them. ξ: configuration not given here. *: point of attachment. Biotin = O=C1N[C@H]2[C@H](CS[C@H]2CCCCC(=O)*)N1; Pro(3ξ,4ξ-(CH2)4) = O=C(O)[C@H]1NCC2CCCCC21; Oic = O=C(O)[C@@H]1C[C@@H]2CCCC[C@@H]2N1; X1 = O=C([C@@H]1CN([*:1])C2CCCCC21)[*:2]; Phe(4-F) = N[C@@H](Cc1ccc(F)cc1)C(=O)O; Tic = O=C(O)[C@@H]1Cc2ccccc2CN1; Dap = NC[C@H](N)C(=O)O; NH(CH2)3NH2 = NCCCN*; GABA = NCCCC(=O)O; βAla = NCCC(=O)O
What was measured:
[1] = Toxicity to mouse RBC assessed as hemolytic activity at 100 uM; type: cell-based, Erythrocyte; conditions: red blood cells, read-out: Activity
[2] = Toxicity to mouse RBC assessed as hemolytic activity at 25 uM; type: cell-based, Erythrocyte; conditions: red blood cells, read-out: Activity
Salmonella typhimurium = experiment: Antibacterial activity against Salmonella Typhimurium ATCC 13311; type: functional, Salmonella enterica subsp. enterica serovar Typhimurium; conditions: for MIC: Salmonella enterica
Staphylococcus aureus = experiment: Antibacterial activity against methicillin/gentamicin/tetracycline resistant Staphylococcus aureus ATCC 33592; type: functional
Mycobacterium = experiment: Antibacterial activity against Mycobacterium ranae ATCC 110; type: functional
Bacillus subtilis = experiment: Antibacterial activity against Bacillus subtilis ATCC 43223; type: functional

SMILES	hemolysis at 100 µM [1]	hemolysis at 25 µM [2]	MIC (Salmonella typhimurium)	MIC (Staphylococcus aureus)	MIC (Mycobacterium)	MIC (Bacillus subtilis)	Activity (Salmonella typhimurium; Salmonella enterica subsp. enterica serovar Typhimurium)
CC(=O)NCC(=O)N[C@@H](Cc1ccccc1)C(=O)N[C@@H](Cc1ccccc1)C(=O)N1CC2CCCCC2[C@H]1C(=O)NCC(=O)N[C@@H](CCCCN)C(=O)N[C@@H](Cc1ccccc1)C(=O)N1CC2CCCCC2[C@H]1C(=O)NCC(=O)N[C@@H](Cc1ccccc1)C(=O)N[C@@H](Cc1ccccc1)C(=O)N1CC2CCCCC2[C@H]1C(=O)NCC(=O)N[C@@H](CCCCN)C(=O)N[C@@H](Cc1ccccc1)C(=O)N[C@@H](CCCCN)C(=O)N[C@@H](CCCCN)C(=O)N[C@@H](CCCCN)C(=O)N[C@@H](CCCCN)C(N)=O (stereo partly drawn) (Ac-GFF[Pro(3ξ,4ξ-(CH2)4)]GKF[Pro(3ξ,4ξ-(CH2)4)]GFF[Pro(3ξ,4ξ-(CH2)4)]GKFKKKK-NH2)	27.3%	8.9%	–	–	–	–	–
CC(=O)NCC(=O)N[C@@H](Cc1ccccc1)C(=O)NCC(=O)N1CC2CCCCC2[C@H]1C(=O)NCC(=O)N[C@@H](CCCCN)C(=O)NCC(=O)N1CC2CCCCC2[C@H]1C(=O)NCC(=O)N[C@@H](Cc1ccccc1)C(=O)NCC(=O)N1CC2CCCCC2[C@H]1C(=O)NCC(=O)N[C@@H](CCCCN)C(=O)NCC(=O)N[C@@H](CCCCN)C(=O)N[C@@H](CCCCN)C(=O)N[C@@H](CCCCN)C(=O)N[C@@H](CCCCN)C(N)=O (stereo partly drawn) (Ac-GFG[Pro(3ξ,4ξ-(CH2)4)]GKG[Pro(3ξ,4ξ-(CH2)4)]GFG[Pro(3ξ,4ξ-(CH2)4)]GKGKKKK-NH2)	3.3%	3.3%	–	–	–	–	–
CC(=O)NCC(=O)N[C@@H](Cc1ccccc1)C(=O)N1CC2CCCCC2[C@H]1C(=O)NCC(=O)N[C@@H](CCCCN)C(=O)N1CC2CCCCC2[C@H]1C(=O)NCC(=O)N[C@@H](Cc1ccccc1)C(=O)N1CC2CCCCC2[C@H]1C(=O)NCC(=O)N[C@@H](CCCCN)C(=O)N[C@@H](CCCCN)C(=O)N[C@@H](CCCCN)C(=O)N[C@@H](CCCCN)C(=O)N[C@@H](CCCCN)C(N)=O (stereo partly drawn) (Ac-GF[Pro(3ξ,4ξ-(CH2)4)]GK[Pro(3ξ,4ξ-(CH2)4)]GF[Pro(3ξ,4ξ-(CH2)4)]GKKKKK-NH2)	5.9%	3.2%	–	–	–	–	–
CC(=O)NCC(=O)N[C@@H](Cc1ccccc1)C(=O)N1Cc2ccccc2C[C@H]1C(=O)N1[C@H](C(=O)NCC(=O)N[C@@H](CCCCN)C(=O)N2Cc3ccccc3C[C@H]2C(=O)N2[C@H](C(=O)NCC(=O)N[C@@H](Cc3ccccc3)C(=O)N3Cc4ccccc4C[C@H]3C(=O)N3[C@H](C(=O)NCC(=O)N[C@@H](CCCCN)C(=O)N4Cc5ccccc5C[C@H]4C(=O)N[C@@H](CCCCN)C(=O)N[C@@H](CCCCN)C(=O)N[C@@H](CCCCN)C(=O)N[C@@H](CCCCN)C(=O)NCCCN)C[C@@H]4CCCC[C@@H]43)C[C@@H]3CCCC[C@@H]32)C[C@@H]2CCCC[C@@H]21 (Ac-GF[Tic][Oic]GK[Tic][Oic]GF[Tic][Oic]GK[Tic]KKKK-{NH(CH2)3NH2})	–	–	30 µM (≈ 74.9 µg/mL)	10 µM (≈ 25 µg/mL)	10 µM (≈ 25 µg/mL)	3 µM (≈ 7.49 µg/mL)	–
CC(=O)NCC(=O)N[C@@H](Cc1ccccc1)C(=O)N1Cc2ccccc2C[C@H]1C(=O)N1[C@H](C(=O)NCC(=O)N[C@@H](CN)C(=O)N2Cc3ccccc3C[C@H]2C(=O)N2[C@H](C(=O)NCC(=O)N[C@@H](Cc3ccccc3)C(=O)N3Cc4ccccc4C[C@H]3C(=O)N3[C@H](C(=O)NCC(=O)N[C@@H](CN)C(=O)N4Cc5ccccc5C[C@H]4C(=O)N[C@@H](CN)C(=O)N[C@@H](CN)C(=O)N[C@@H](CN)C(=O)N[C@@H](CN)C(N)=O)C[C@@H]4CCCC[C@@H]43)C[C@@H]3CCCC[C@@H]32)C[C@@H]2CCCC[C@@H]21 (Ac-GF[Tic][Oic]G[Dap][Tic][Oic]GF[Tic][Oic]G[Dap][Tic][Dap][Dap][Dap][Dap]-NH2)	–	–	3 µM (≈ 6.57 µg/mL)	10 µM (≈ 21.9 µg/mL)	100 µM (≈ 219 µg/mL)	1 µM (≈ 2.19 µg/mL)	–
CC(=O)NCC(=O)N[C@@H](Cc1ccccc1)C(=O)N1Cc2ccccc2C[C@H]1C(=O)N1CC2CCCCC2[C@H]1C(=O)NCC(=O)N[C@@H](CCCCN)C(=O)N1Cc2ccccc2C[C@H]1C(=O)N1CC2CCCCC2[C@H]1C(=O)NCC(=O)N[C@@H](Cc1ccccc1)C(=O)N1Cc2ccccc2C[C@H]1C(=O)N1CC2CCCCC2[C@H]1C(=O)NCC(=O)N[C@@H](CCCCN)C(=O)N1Cc2ccccc2C[C@H]1C(=O)N[C@@H](CCCCN)C(=O)N[C@@H](CCCCN)C(=O)N[C@@H](CCCCN)C(=O)N[C@@H](CCCCN)C(=O)N[C@@H](CCCCN)C(N)=O (stereo partly drawn) (Ac-GF[Tic][Pro(3ξ,4ξ-(CH2)4)]GK[Tic][Pro(3ξ,4ξ-(CH2)4)]GF[Tic][Pro(3ξ,4ξ-(CH2)4)]GK[Tic]KKKKK-NH2)	–	–	10 µM (≈ 25.7 µg/mL)	3 µM (≈ 7.71 µg/mL)	3 µM (≈ 7.71 µg/mL)	1 µM (≈ 2.57 µg/mL)	–
CC(=O)NCC(=O)N[C@@H](Cc1ccc(F)cc1)C(=O)N1Cc2ccccc2C[C@H]1C(=O)N1CC2CCCCC2[C@H]1C(=O)NCC(=O)N[C@@H](CCCCN)C(=O)N1Cc2ccccc2C[C@H]1C(=O)N1CC2CCCCC2[C@H]1C(=O)NCC(=O)N[C@@H](Cc1ccc(F)cc1)C(=O)N1Cc2ccccc2C[C@H]1C(=O)N1CC2CCCCC2[C@H]1C(=O)NCC(=O)N[C@@H](CCCCN)C(=O)N1Cc2ccccc2C[C@H]1C(=O)N[C@@H](CCCCN)C(=O)N[C@@H](CCCCN)C(=O)N[C@@H](CCCCN)C(=O)N[C@@H](CCCCN)C(N)=O (stereo partly drawn) (Ac-G[Phe(4-F)][Tic][Pro(3ξ,4ξ-(CH2)4)]GK[Tic][Pro(3ξ,4ξ-(CH2)4)]G[Phe(4-F)][Tic][Pro(3ξ,4ξ-(CH2)4)]GK[Tic]KKKK-NH2)	–	–	30 µM (≈ 74.3 µg/mL)	10 µM (≈ 24.8 µg/mL)	3 µM (≈ 7.43 µg/mL)	0.3 µM (≈ 0.743 µg/mL)	–
CC(=O)NCCCC(=O)N[C@@H](Cc1ccccc1)C(=O)N1Cc2ccccc2C[C@H]1C(=O)N1[C@H](C(=O)NCCCC(=O)N[C@@H](CCCCN)C(=O)N2Cc3ccccc3C[C@H]2C(=O)N2[C@H](C(=O)NCCCC(=O)N[C@@H](Cc3ccccc3)C(=O)N3Cc4ccccc4C[C@H]3C(=O)N3[C@H](C(=O)NCCCC(=O)N[C@@H](CCCCN)C(=O)N4Cc5ccccc5C[C@H]4C(=O)N[C@@H](CCCCN)C(=O)N[C@@H](CCCCN)C(=O)N[C@@H](CCCCN)C(=O)N[C@@H](CCCCN)C(=O)N[C@@H](CCCCN)C(N)=O)C[C@@H]4CCCC[C@@H]43)C[C@@H]3CCCC[C@@H]32)C[C@@H]2CCCC[C@@H]21 (Ac-[GABA]F[Tic][Oic][GABA]K[Tic][Oic][GABA]F[Tic][Oic][GABA]K[Tic]KKKKK-NH2)	–	–	10 µM (≈ 26.8 µg/mL)	30 µM (≈ 80.4 µg/mL)	3 µM (≈ 8.04 µg/mL)	1 µM (≈ 2.68 µg/mL)	–
CC(=O)NCCC(=O)N[C@@H](Cc1ccc(F)cc1)C(=O)N1Cc2ccccc2C[C@H]1C(=O)N1CC2CCCCC2[C@H]1C(=O)NCCC(=O)N[C@@H](CN)C(=O)N1Cc2ccccc2C[C@H]1C(=O)N1CC2CCCCC2[C@H]1C(=O)NCCC(=O)N[C@@H](Cc1ccc(F)cc1)C(=O)N1Cc2ccccc2C[C@H]1C(=O)N1CC2CCCCC2[C@H]1C(=O)NCCC(=O)N[C@@H](CN)C(=O)N1Cc2ccccc2C[C@H]1C(=O)N[C@@H](CN)C(=O)N[C@@H](CN)C(=O)N[C@@H](CN)C(=O)N[C@@H](CN)C(N)=O (stereo partly drawn) (Ac-[βAla][Phe(4-F)][Tic][Pro(3ξ,4ξ-(CH2)4)][βAla][Dap][Tic][Pro(3ξ,4ξ-(CH2)4)][βAla][Phe(4-F)][Tic][Pro(3ξ,4ξ-(CH2)4)][βAla][Dap][Tic][Dap][Dap][Dap][Dap]-NH2)	–	–	3 µM (≈ 6.84 µg/mL)	30 µM (≈ 68.4 µg/mL)	100 µM (≈ 228 µg/mL)	0.3 µM (≈ 0.684 µg/mL)	–
NCCCC[C@H](NC(=O)[C@H](CCCCN)NC(=O)[C@H](CCCCN)NC(=O)[C@H](CCCCN)NC(=O)[C@@H]1Cc2ccccc2CN1C(=O)[C@H](CCCCN)NC(=O)CNC(=O)[C@@H]1C[C@@H]2CCCC[C@@H]2N1C(=O)[C@@H]1Cc2ccccc2CN1C(=O)[C@H](Cc1ccccc1)NC(=O)CNC(=O)[C@@H]1C[C@@H]2CCCC[C@@H]2N1C(=O)[C@@H]1Cc2ccccc2CN1C(=O)[C@H](CCCCN)NC(=O)CNC(=O)[C@@H]1C[C@@H]2CCCC[C@@H]2N1C(=O)[C@@H]1Cc2ccccc2CN1C(=O)[C@H](Cc1ccccc1)NC(=O)CNC(=O)CCCC[C@@H]1SC[C@@H]2NC(=O)N[C@@H]21)C(N)=O (Biotin-GF[Tic][Oic]GK[Tic][Oic]GF[Tic][Oic]GK[Tic]KKKK-NH2)	–	–	30 µM (≈ 78.8 µg/mL)	3 µM (≈ 7.88 µg/mL)	10 µM (≈ 26.3 µg/mL)	1 µM (≈ 2.63 µg/mL)	–
NCCCC[C@H](NC(=O)[C@H](CCCCN)NC(=O)[C@H](CCCCN)NC(=O)[C@H](CCCCN)NC(=O)[C@@H]1Cc2ccccc2CN1C(=O)[C@H](CCCCN)NC(=O)CNC(=O)[C@@H]1C[C@@H]2CCCC[C@@H]2N1C(=O)[C@@H]1Cc2ccccc2CN1C(=O)[C@H](Cc1ccccc1)NC(=O)CNC(=O)[C@@H]1C[C@@H]2CCCC[C@@H]2N1C(=O)[C@@H]1Cc2ccccc2CN1C(=O)[C@H](CCCCN)NC(=O)CNC(=O)[C@@H]1C[C@@H]2CCCC[C@@H]2N1C(=O)[C@@H]1Cc2ccccc2CN1C(=O)[C@H](Cc1ccccc1)NC(=O)CN)C(N)=O (H-GF[Tic][Oic]GK[Tic][Oic]GF[Tic][Oic]GK[Tic]KKKK-NH2)	–	–	3 µM (≈ 7.2 µg/mL)	10 µM (≈ 24 µg/mL)	10 µM (≈ 24 µg/mL)	1 µM (≈ 2.4 µg/mL)	–
CC(C)C[C@H](NC(=O)[C@@H](N)CCCCN)C(=O)N1Cc2ccccc2C[C@H]1C(=O)N1C[C@@H](C(=O)N[C@@H](CCCCN)C(=O)N2Cc3ccccc3C[C@H]2C(=O)N2C[C@@H](C(=O)N[C@@H](Cc3ccccc3)C(=O)N3Cc4ccccc4C[C@H]3C(=O)N3C[C@@H](C(=O)N[C@@H](CCCCN)C(=O)N4Cc5ccccc5C[C@H]4C(=O)N4C[C@@H](C(=O)N[C@@H](Cc5ccccc5)C(=O)N5Cc6ccccc6C[C@H]5C(=O)N5C[C@@H](C(=O)N[C@@H](CCCCN)C(=O)N6Cc7ccccc7C[C@H]6C(=O)N6C[C@@H](C(=O)N[C@@H](CCCCN)C(=O)N[C@@H](CCCNC(=N)N)C(N)=O)C7CCCCC76)C6CCCCC65)C5CCCCC54)C4CCCCC43)C3CCCCC32)C2CCCCC21 (stereo partly drawn) (H-KL[Tic][X1]K[Tic][X1]F[Tic][X1]K[Tic][X1]F[Tic][X1]K[Tic][X1]KR-NH2)	63%	–	–	10 µM (≈ 30.8 µg/mL)	30 µM (≈ 92.5 µg/mL)	1 µM (≈ 3.08 µg/mL)	inactive
